Data on eleven molecules can be found in ChEMBL document CHEMBL1143950, “Antifungal and cytotoxic activities of some N-substituted aniline derivatives bearing a hetaryl fragment” (Bioorg Med Chem, 2008).

What all share (type): functional
Test [1] has as its system Aspergillus flavus. Kind of test: Antifungal activity against Aspergillus flavus ATCC 9170 by micro-broth dilution method. Background: Broth dilution looks for growth in wells or tubes with falling amounts of substance.
Test [2] concerns Candida albicans. Nature of the test: Antifungal activity against Candida albicans ATCC 10231 by micro-broth dilution method.
Test [3] has as its system Trichophyton mentagrophytes. Nature of the test: Antifungal activity against Trichophyton mentagrophytes ATCC 9972 by micro-broth dilution method.
The subject of test [4] is Saccharomyces cerevisiae. Nature of the test: Antifungal activity against Saccharomyces cerevisiae ATCC 9763 by microbroth dilution method.
Test [5] relates to Cryptococcus neoformans. Kind of test: Antifungal activity against Cryptococcus neoformans ATCC 32264 by microbroth dilution method.
The subject of test [6] is Candida tropicalis. Nature of the test: Antifungal activity against Candida tropicalis C131 by micro-broth dilution method.
In test [7] the test system is Trichophyton rubrum. Kind of test: Antifungal activity against Trichophyton rubrum C113 by microbroth dilution method.
Test [8] concerns Aspergillus fumigatus. Kind of test: Antifungal activity against Aspergillus fumigatus ATCC 26934 by micro-broth dilution method.
For test [9], the system named is Aspergillus niger. Kind of test: Antifungal activity against Aspergillus niger ATCC 9029 by micro-broth dilution method.
Test [10] relates to Nannizzia gypsea. Kind of test: Antifungal activity against Microsporum gypseum C115 by microbroth dilution method.
The test system of test [11] is Cryptococcus neoformans. Nature of the test: Antifungal activity against Cryptococcus neoformans IM 972751 by microbroth dilution method.
Test [12] concerns Cryptococcus neoformans. Kind of test: Antifungal activity against Cryptococcus neoformans IM 031706 by micro-broth dilution method.
The test system of test [13] is Cryptococcus neoformans. Kind of test: Antifungal activity against Cryptococcus neoformans IM 972724 by micro-broth dilution method.
The test system of test [14] is Cryptococcus neoformans. Kind of test: Antifungal activity against Cryptococcus neoformans IM 961951 by micro-broth dilution method.
For test [15], the system named is Cryptococcus neoformans. Nature of the test: Antifungal activity against Cryptococcus neoformans IM 00319 by microbroth dilution method.
Test [16] has as its system Cryptococcus neoformans. Kind of test: Antifungal activity against Cryptococcus neoformans IM 983040 by micro-broth dilution method.
The subject of test [17] is Cryptococcus neoformans. Nature of the test: Antifungal activity against Cryptococcus neoformans IM 042074 by micro-broth dilution method.
Test [18] relates to Cryptococcus neoformans. Nature of the test: Antifungal activity against Cryptococcus neoformans IM 031631 by micro-broth dilution method.

Values after ≈ are worked out from the molar mass of the structure shown.

The term MIC denotes the lowest concentration that inhibits growth of the organism. Read a high MIC as a less susceptible organism. In the case of `Fc1ccc(NCc2ccco2)cc1`, the MIC in test [1] was above 250 mg/L; in test [2], 100 mg/L (≈ 523 µM); in test [3], 62.5 mg/L (≈ 327 µM); in [4], 125 mg/L (≈ 654 µM); in [5], 100 mg/L (≈ 523 µM); in test [6] it was 125 mg/L (≈ 654 µM). In addition, the MIC in [7] amounted to 25 mg/L (≈ 131 µM); in test [8], 100 mg/L (≈ 523 µM); in [9] it was 250 mg/L (≈ 1310 µM); in test [10], 100 mg/L (≈ 523 µM).
For `Clc1ccc(NCc2ccco2)cc1`, the MIC was 50 mg/L (≈ 241 µM) in test [1]; 62.5 mg/L (≈ 301 µM) in [2]; 12.5 mg/L (≈ 60.2 µM) in [3]; 50 mg/L (≈ 241 µM) in test [4]; 50 mg/L (≈ 241 µM) in test [5]; 62.5 mg/L (≈ 301 µM) in [6]. Also, the MIC was 6.25 mg/L (≈ 30.1 µM) in [7], 50 mg/L (≈ 241 µM) in test [8], 62.5 mg/L (≈ 301 µM) in test [9] and 12.5 mg/L (≈ 60.2 µM) in [10].
As for `Clc1ccc(NCc2ccncc2)cc1`, the minimal inhibitory concentration (MIC) in test [1] is 125 mg/L (≈ 572 µM); in [2] it was 31.2 mg/L (≈ 143 µM); in test [3], 62.5 mg/L (≈ 286 µM); in test [4] it was 62.5 mg/L (≈ 286 µM); in [5] it was 62.5 mg/L (≈ 286 µM); in test [6], 31.2 mg/L (≈ 143 µM). Also, the MIC in test [7] amounted to 62.5 mg/L (≈ 286 µM); in test [8], 125 mg/L (≈ 572 µM); in test [9], 125 mg/L (≈ 572 µM); in [10], 62.5 mg/L (≈ 286 µM).
Consider `Cc1cc(C)cc(NCc2ccncc2)c1`, for which the MIC in test [1] came out at 200 mg/L (≈ 942 µM); in test [2], 250 mg/L (≈ 1180 µM); in test [3] it was 25 mg/L (≈ 118 µM); in test [4], 250 mg/L (≈ 1180 µM); in test [5] it was 50 mg/L (≈ 236 µM); in test [6], 250 mg/L (≈ 1180 µM). The MIC in [7] came to 25 mg/L (≈ 118 µM); in [8] it was 100 mg/L (≈ 471 µM); in test [9] it was 100 mg/L (≈ 471 µM); in [10], 25 mg/L (≈ 118 µM).
On to `C=CCC(Nc1ccc(Cl)cc1)c1ccoc1` (stereo not drawn), for which the MIC in test [1] is above 250 mg/L; in [2], above 250 mg/L; in test [3], 62.5 mg/L (≈ 252 µM); in [4] it was above 250 mg/L; in test [5] it was 125 mg/L (≈ 505 µM); in test [6] it was above 250 mg/L. The minimal inhibitory concentration (MIC) in test [7] was 62.5 mg/L (≈ 252 µM); in [8], above 250 mg/L; in test [9] it was above 250 mg/L; in [10] it was 62.5 mg/L (≈ 252 µM).
On to `C=CCC(Nc1ccccc1)c1cccs1` (stereo not drawn), for which the MIC is above 250 mg/L in test [1]; above 250 mg/L in [2]; 125 mg/L (≈ 545 µM) in [3]; above 250 mg/L in test [4]; above 250 mg/L in test [5]; above 250 mg/L in [6]. In addition, the minimal inhibitory concentration (MIC) in test [7] was 125 mg/L (≈ 545 µM); in test [8], above 250 mg/L; in [9], above 250 mg/L; in [10], 125 mg/L (≈ 545 µM).
Turning to `CN(C)c1ccc(CNc2ccccc2)cc1`, the MIC in [1], in test [2], in test [3], in test [4], in test [5] and in [6] was above 250 mg/L throughout. In addition, the MIC in [7] was above 250 mg/L; in test [8] it was 200 mg/L (≈ 884 µM); in test [9], above 250 mg/L; in [10], above 250 mg/L.
For the molecule `Brc1ccc(NCc2ccco2)cc1`, the minimum inhibitory concentration (MIC) in [1] worked out at 50 mg/L (≈ 198 µM); in test [2], 62.5 mg/L (≈ 248 µM); in [3] it was 12.5 mg/L (≈ 49.6 µM); in test [4], 50 mg/L (≈ 198 µM); in test [5] it was 50 mg/L (≈ 198 µM); in [6], 75 mg/L (≈ 297 µM). Besides, the MIC in [7] worked out at 3.12 mg/L (≈ 12.4 µM); in test [8] it was 50 mg/L (≈ 198 µM); in test [9], 62.5 mg/L (≈ 248 µM); in test [10], 6.25 mg/L (≈ 24.8 µM).
Regarding `Cc1ccc(NCc2ccncc2)cc1`, the minimum inhibitory concentration (MIC) in [1] was 200 mg/L (≈ 1010 µM); in test [2], 100 mg/L (≈ 504 µM); in test [3], 25 mg/L (≈ 126 µM); in [4], 100 mg/L (≈ 504 µM); in [5], 50 mg/L (≈ 252 µM); in test [6], 50 mg/L (≈ 252 µM). For the same molecule, the MIC in test [7] came to 25 mg/L (≈ 126 µM); in test [8], 100 mg/L (≈ 504 µM); in test [9], 100 mg/L (≈ 504 µM); in test [10], 50 mg/L (≈ 252 µM).
For `Nc1nc(=O)[nH]cc1F` [FLUCYTOSINE], the MIC is 7.8 mg/L (≈ 60.4 µM) in test [11]; 3.9 mg/L (≈ 30.2 µM) in test [12]; 3.9 mg/L (≈ 30.2 µM) in test [13]; 7.8 mg/L (≈ 60.4 µM) in test [14]; 15.6 mg/L (≈ 121 µM) in [15]; 7.8 mg/L (≈ 60.4 µM) in test [16]. The values for the MIC in [17] and in [18] were 3.9 mg/L (≈ 30.2 µM) and 7.8 mg/L (≈ 60.4 µM), respectively.
As for `CC(=O)N1CCN(c2ccc(OC[C@H]3CO[C@](Cn4ccnc4)(c4ccc(Cl)cc4Cl)O3)cc2)CC1` [KETOCONAZOLE], the MIC is 0.5 mg/L (≈ 0.941 µM) in [1]; 0.5 mg/L (≈ 0.941 µM) in [2]; 0.025 mg/L (≈ 0.047 µM) in [3]; 0.5 mg/L (≈ 0.941 µM) in test [4]; 0.25 mg/L (≈ 0.47 µM) in test [5]; 0.125 mg/L (≈ 0.235 µM) in test [6]. The MIC in test [7] is 0.025 mg/L (≈ 0.047 µM); in [8], 0.125 mg/L (≈ 0.235 µM); in test [9] it was 0.25 mg/L (≈ 0.47 µM); in test [10] it was 0.05 mg/L (≈ 0.0941 µM).
